According to patent US4851450A, “Compounds for inhibition of platelet activating factor activity” (priority 1987, dated 1989):
Like-named read-outs stand apart in the source and are kept apart here.

Assays:
rats = test: Systolic blood pressure in rats (procedure of Tselepis et al.); assay type: in vivo, rat
Description: Biochem. Physiol. 87C(1),41-46 (1987), the teachings of which are incorporated herein.

[1] = tested on: Tetrahymena pyriformis cells; test: Glycogenolysis in intact Tetrahymena pyriformis cells; assay type: cell-based; conditions: glucose measured, FIG. 3
Method: The results were obtained using the following procedure: Tetrahymena pyriformis cells, in log phase, are spun down, washed with saline and resuspended in Tyrodes solution. After 30 min of incubation, the compounds III and IV in bovine serum albumin solution are added and aliquots taken at different time intervals. The aliquots are treated for 2 min in boiled water, sonicated and glucose measured by the method of Bergmeyer et al. (Methods of Enzymatic Analysis, 3, 1196 (Academic Press, N.Y. 1974), the teachings of which are incorporated herein.

[2] = tested on: PAF aggregation of washed rabbit platelets; test: Inhibition of PAF (AGEPC) activity / disaggregation during AGEPC-induced aggregation of washed rabbit platelets; assay type: cell-based; conditions: for IC50: Oryctolagus cuniculus, Platelet
washed rabbit platelets = test: Aggregation of washed rabbit platelets (procedure of Demopoulos et al.); assay type: cell-based; conditions: for EC50: Oryctolagus cuniculus, Platelet, final concentrations; for cytotoxicity of the aggregation: washed rabbit platelets
rabbit platelets = test: [3H]Serotonin secretion by platelets; assay type: cell-based; conditions: Oryctolagus cuniculus, Platelet; 2 min; final concentrations; read-out: 50% secretion of 3H-serotonin at 2 min
Method: The procedure is as follows: PAF and the various test lipid compounds are assessed for platelet stimulatory activity as briefly described. Rabbit platelets, internally labeled with [^3 H]serotonin (New England Nuclear; 28.2 Ci/mmol) are washed on Ficoll-Paque cushions and adjusted to 2.5×10^8 platelets/ml of Tyrode's buffer, pH 7.2. Appropriate dilutions of PAF or the test lipids are prepared in pyrogen-free 0.15M NaCl containing 2.5 mg/ml of crystallized bovine serum albumin; the albumin is required for dispersion of PAF and the test lipids. Four microliters of the various dilutions of PAF and test lipids are added to 200 μl of prewarmed (37° C.) [^3 H]serotonin-labeled platelets in plastic test tubes and the reaction mixture was incubated for 60 s at which time 20 μl of cold 1.5 m formaldehyde were added to stop the reactions. The tubes were immediately cooled to 0° C., centrifuged at 2200×g for 10 min and the supernatants were assayed for percentage of [^3 H]serotonin secretion relative to 100% controls prepared by the addition of Triton X-100 to 200 μl of the starting platelet suspension. The data were plotted linearly and 1 unit of activity was defined as the amount of PAF or test lipids required to effect 50% serotonin release. […]

[3] = Table, final molar concentration, for 2 × 10^-10 M AGEPC, read-out: IC50
[4] = against 2×10^-10 M PAF, final concentrations, read-out: IC50 for 2×10^-10 M PAF

Row | Molecule | fall in systolic blood pressure (SBP) (rats) | glycogenolysis [1] | IC50 [2, 3] | IC50 [2, 4] | EC50 (washed rabbit platelets) | cytotoxicity of the aggregation (washed rabbit platelets) | EC50 (rabbit platelets) | effect on aggregation when added during AGEPC-induced aggregation ([2]; added during AGEPC (PAF)-induced aggregation, FIG. 4)
1 | 1-O-alkyl-2-acetyl-sn-glyceryl-3-phosphorylcholine [PAF] | fall in the systolic blood pressure | dramatic influence on glycogenolysis | – | – | – | – | – | –
2 | CCCCCCCCC(O)C(O)CCCCCCCCOCC(O)CO (stereo not shown) [Compound III, 9,10-Dihydroxy-Octadecyl Glycerol] | – | – | 16 µM | 16 µM | 0.2 µM | non-cytotoxic | 2 µM | –
3 | CCCCCCCCC(OC(C)=O)C(CCCCCCCCOCC(COC(C)=O)OC(C)=O)OC(C)=O (stereo not shown) [Compound IV, Tetra-Acetyl-9,10-Dihydroxy-Octadecyl Glycerol] | – | – | 28 µM | 28 µM | 2 µM | non-cytotoxic | 9 µM | –
4 | thrombin | – | – | – | – | – | – | – | no effect on platelet aggregation
